The results in this text go back to patent US20250186329A1, “A SKIN BRIGHTENING COMPOSITION” (Conopco, Inc., d/b/a UNILEVER, priority 2022, published 2025).

Marks after values point to notes of the source that are not given here.

The test system of this test is co-cultures of HaCaT keratinocytes and melanocytes (neonatal primary human epidermal melanocytes). Description: Melanin content assay (% cellular melanin vs control) in keratinocyte/melanocyte co-cultures. Type of test: cell-based. Particulars: percentage cellular melanin vs control; 72 h of active treatment; OD at 405 nm; active concentrations (wt %) as given per example. The protocol:
Various samples containing actives were prepared and the % cellular melanin content was measured. The protocol for measuring the cellular melanin is summarized below:
Neonatal primary human epidermal melanocytes were sourced from Life Technologies. Melanocytes were maintained in Medium 254 supplemented with human melanocyte growth supplement (MGM). HaCaT keratinocytes were maintained in DMEM medium containing 10% heat inactivated FBS. All media were also supplemented with 10 U/mL penicillin G and 0.1 mg/mL streptomycin sulphate. Both cell types were maintained at 37° C. in a humidified incubator with 5% CO2 atmosphere. Maintenance and sub-culturing of cells were carried out as per the manufacturer's instructions.
For setup of co-cultures, 40,000 cells each of HaCaT keratinocytes and melanocytes were mixed in 1 mL of a 1:1 mix of MGM:KGM (KGM: Epilife medium supplemented with human keratinocyte growth supplement) and seeded as such per well, in 12 well Nunc plates.
Actives were prepared in media and test concentrations were added to cells along with relevant controls 24 h post seeding. After 72 h of active treatment, cell viability (using calcein method) and measurement of cellular melanin content was determined as described below.
After calcein fluorescence readings were obtained, cells were drained and fresh 0.15 mL of 1N NaOH (in 10% DMSO) per well was added. Cells were lysed by resuspension and incubation (60° C. for 1 h). Then, 0.1 mL of this lysate was transferred to a fresh 384-well plate and OD was measured at 405 nm in a TECAN M1000 plate reader. Melanin content was calculated as percentage cellular melanin vs control.
In the case of `CCCCCCc1ccc(O)cc1O` [Example E, 4-hexyl resorcinol, reference compound], the “% cellular melanin” value is on record as 69* %.
As to Inulin [B], the “% cellular melanin” value worked out at 86%.
For Inulin [Example C] the value was 96%.
